{"source": "patent US20060128640A1", "about": "(priority 2001, published 2006)", "key": {"[1]": {"test_system": "mammary adenocarcinoma MA 13/C", "conditions": "for % bwl (nadir): mouse, in vivo, iv; for HNTD (DT), total dose / HNTD (highest non-toxic dose), per dose: single agent IV, days 15, 21"}, "[2]": {"test_system": "murine mammary adenocarcinoma MA13/C", "conditions": "for highest non-toxic total dose, component alone: single agent IV, Taxotere d14, 23, flavopiridol d14-17, 20-23"}, "[3]": {"conditions": "Flavo alone IV at HNTD 2.9 mg/kg/dose (total 23.2 mg/kg)"}, "[4]": {"conditions": "Flavopiridol alone IV 1.75 mg/kg/dose d14-17, 20-23 (total 14)"}, "[5]": {"conditions": "Flavopiridol alone IV 2.9 mg/kg/dose d14-17, 20-23 (total 23.2)"}, "[6]": {"conditions": "Flavopiridol alone IV 4.8 mg/kg/dose d14-17, 20-23 (total 38.4)"}, "[7]": {"conditions": "Taxotere alone IV 48.1 mg/kg/dose d14, 23 (total 96.8)"}}, "note": "Read-outs that look alike come from different tables or passages of the source."}
{"smiles": "CN1CC[C@H](c2c(O)cc(O)c3c(=O)cc(-c4ccccc4Cl)oc23)[C@H](O)C1", "note": "[Flavopiridol, cis-5,7-dihydroxy-2-(2-chlorophenyl)-8-[4-(3-hydroxy-1-methyl)-piperidinyl]-1-benzopyran-4-one]", "values": [{"measurement": "lck (log10 cell kill)", "setting": "MA13/C; Flavopiridol alone po 2.7 mg/kg days 14-18, 21-25 (total 27)", "value": 0.1}, {"measurement": "% bwl (nadir)", "setting": "MA13/C; mouse, in vivo, po, 2.7 mg/kg", "value": 11.6, "unit": "%"}, {"measurement": "lck (log10 cell kill)", "setting": "[1]; Flavopiridol alone IV 6.0 mg/kg days 15, 21 (total 12.0)", "value": 0.4}, {"measurement": "CR (complete response)", "setting": "[1]; Flavopiridol alone IV 6.0 mg/kg days 15, 21 (total 12.0), 6 mg/kg", "value": "0/5 CR"}, {"measurement": "CR (complete response)", "setting": "[1]; Flavopiridol alone IV 6.0 mg/kg days 15, 21 (total 12.0), listed as flavopiridol, 6 mg/kg", "value": "no compete responses in the 5 mice tested"}, {"measurement": "% bwl (nadir)", "setting": "[1]; 6 mg/kg", "value": "6 (16) %"}, {"measurement": "HNTD (DT), total dose", "setting": "[1]", "value": "(12.0) mg/kg"}, {"measurement": "HNTD (highest non-toxic dose), per dose", "setting": "[1]", "value": 6.0, "unit": "mg/kg"}, {"measurement": "activity rating", "setting": "[2]; [3]", "value": "inactive"}, {"measurement": "log cell kill net", "setting": "[2]; [3]", "value": "−0.4"}, {"measurement": "highest non-toxic dose (HNTD), per dose", "setting": "[2]; Flavo alone IV once a day, day 14 to 17 and 20-23", "value": 2.9, "unit": "mg/kg/dose"}, {"measurement": "CR (complete response)", "setting": "[2]; [4]", "value": "0/6"}, {"measurement": "lck Gross", "setting": "[2]; [4]", "value": 0.0}, {"measurement": "% bwl (nadir)", "setting": "[2]; Flavopiridol alone IV 1.75 mg/kg/dose d14-17, 20-23 (total 14), day 24", "value": "+10 (24) %"}, {"measurement": "Comments (toxicity level of the dose)", "setting": "[2]; [5]", "value": "HNTD"}, {"measurement": "lck Gross", "setting": "[2]; [5]", "value": 1.0}, {"measurement": "CR (complete response)", "setting": "[2]; Flavopiridol alone IV 2.9 mg/kg/dose d14-17, 20-23 (total 23.2), 2.9 mg/kg", "value": "0/6"}, {"measurement": "CR (complete response)", "setting": "[2]; Flavopiridol alone IV 2.9 mg/kg/dose d14-17, 20-23 (total 23.2), listed as Flavo, 2.9 mg/kg", "value": "no complete regression"}, {"measurement": "% bwl (nadir)", "setting": "[2]; Flavopiridol alone IV 2.9 mg/kg/dose d14-17, 20-23 (total 23.2), nadir day 18", "value": "3 (18) %"}, {"measurement": "% bwl (nadir)", "setting": "[2]; [6]", "value": ">20", "unit": "%"}, {"measurement": "Comments: DD", "setting": "[2]; [6]", "value": "4/5 DD"}, {"measurement": "highest non-toxic total dose, component alone", "setting": "[2]", "value": 23.2, "unit": "mg/kg"}]}
{"smiles": "CC(=O)O[C@@]12CO[C@@H]1C[C@H](O)[C@@]1(C)C(=O)[C@H](O)C3=C(C)[C@@H](OC(=O)[C@H](O)[C@@H](NC(=O)OC(C)(C)C)c4ccccc4)C[C@@](O)([C@@H](OC(=O)c4ccccc4)[C@H]21)C3(C)C", "note": "[Taxotere ®, docetaxel]", "values": [{"measurement": "lck (log10 cell kill)", "setting": "MA13/C; Taxotere alone IV 30 mg/kg days 14, 25 (total 60)", "value": 0.9}, {"measurement": "HNTD (DT), total dose", "setting": "MA13/C; mouse, in vivo", "value": "(60) mg/kg"}, {"measurement": "HNTD, per dose", "setting": "MA13/C; mouse, in vivo", "value": 30, "unit": "mg/kg"}, {"measurement": "% bwl (nadir)", "setting": "MA13/C; mouse, in vivo, iv, 30 mg/kg", "value": 3.6, "unit": "%"}, {"measurement": "Comments (toxicity level of the dose)", "setting": "MA13/C; mouse, in vivo, iv, 30 mg/kg", "value": "HNTD"}, {"measurement": "lck (log10 cell kill)", "setting": "[1]; Taxotere alone IV 30.0 mg/kg days 15, 21 (total 60.0)", "value": 4.7}, {"measurement": "CR (complete response)", "setting": "[1]; Taxotere alone IV 30.0 mg/kg days 15, 21 (total 60.0), 30 mg/kg", "value": "5/5 CR"}, {"measurement": "CR (complete response)", "setting": "[1]; Taxotere alone IV 30.0 mg/kg days 15, 21 (total 60.0), listed as Taxotere®, 30 mg/kg", "value": "complete response in all 5 of the mice"}, {"measurement": "% bwl (nadir)", "setting": "[1]; 30 mg/kg", "value": "8 (27) %"}, {"measurement": "HNTD (DT), total dose", "setting": "[1]", "value": "(60.0) mg/kg"}, {"measurement": "HNTD (highest non-toxic dose), per dose", "setting": "[1]", "value": 30.0, "unit": "mg/kg"}, {"measurement": "CR (complete response)", "setting": "[2]; [7]", "value": "6/6"}, {"measurement": "Comments (toxicity level of the dose)", "setting": "[2]; [7]", "value": "HNTD"}, {"measurement": "lck Gross", "setting": "[2]; [7]", "value": 4.4}, {"measurement": "% bwl (nadir)", "setting": "[2]; Taxotere alone IV 48.1 mg/kg/dose d14, 23 (total 96.8), nadir day 28", "value": "8 (28) %"}, {"measurement": "Comments: DD", "setting": "[2]; Taxotere alone IV 78.1 mg/kg/dose d14, 23 (total 156.2)", "value": "2/6 DD"}, {"measurement": "% bwl (nadir)", "setting": "[2]; Taxotere alone IV 78.1 mg/kg/dose d14, 23 (total 156.2), nadir day 29", "value": "20 (29) %"}, {"measurement": "log cell kill net", "setting": "[2]; docetaxel alone at HNTD 48.1 mg/kg/injection (total 96.8 mg/kg)", "value": 3}, {"measurement": "HNTD, per injection", "setting": "[2]; docetaxel alone, days 14 and 23", "value": 48.1, "unit": "mg/kg/injection"}, {"measurement": "highest non-toxic total dose, component alone", "setting": "[2]", "value": 96.8, "unit": "mg/kg"}]}
